Test results taken from ChEMBL document CHEMBL3797199, “Anti-gout nor-oleanane triterpenoids from the leaves of Stauntonia brachyanthera” (Bioorg Med Chem Lett, 2016).

Target: Xanthine dehydrogenase/oxidase (Bos taurus, UniProt P80457)
Assay: Inhibition of bovine milk xanthine oxidase using xanthine as substrate preincubated for 15 mins followed by substrate addition by spectrophotometric method

Xanthine dehydrogenase/oxidase, sequence (P80457 whole entry): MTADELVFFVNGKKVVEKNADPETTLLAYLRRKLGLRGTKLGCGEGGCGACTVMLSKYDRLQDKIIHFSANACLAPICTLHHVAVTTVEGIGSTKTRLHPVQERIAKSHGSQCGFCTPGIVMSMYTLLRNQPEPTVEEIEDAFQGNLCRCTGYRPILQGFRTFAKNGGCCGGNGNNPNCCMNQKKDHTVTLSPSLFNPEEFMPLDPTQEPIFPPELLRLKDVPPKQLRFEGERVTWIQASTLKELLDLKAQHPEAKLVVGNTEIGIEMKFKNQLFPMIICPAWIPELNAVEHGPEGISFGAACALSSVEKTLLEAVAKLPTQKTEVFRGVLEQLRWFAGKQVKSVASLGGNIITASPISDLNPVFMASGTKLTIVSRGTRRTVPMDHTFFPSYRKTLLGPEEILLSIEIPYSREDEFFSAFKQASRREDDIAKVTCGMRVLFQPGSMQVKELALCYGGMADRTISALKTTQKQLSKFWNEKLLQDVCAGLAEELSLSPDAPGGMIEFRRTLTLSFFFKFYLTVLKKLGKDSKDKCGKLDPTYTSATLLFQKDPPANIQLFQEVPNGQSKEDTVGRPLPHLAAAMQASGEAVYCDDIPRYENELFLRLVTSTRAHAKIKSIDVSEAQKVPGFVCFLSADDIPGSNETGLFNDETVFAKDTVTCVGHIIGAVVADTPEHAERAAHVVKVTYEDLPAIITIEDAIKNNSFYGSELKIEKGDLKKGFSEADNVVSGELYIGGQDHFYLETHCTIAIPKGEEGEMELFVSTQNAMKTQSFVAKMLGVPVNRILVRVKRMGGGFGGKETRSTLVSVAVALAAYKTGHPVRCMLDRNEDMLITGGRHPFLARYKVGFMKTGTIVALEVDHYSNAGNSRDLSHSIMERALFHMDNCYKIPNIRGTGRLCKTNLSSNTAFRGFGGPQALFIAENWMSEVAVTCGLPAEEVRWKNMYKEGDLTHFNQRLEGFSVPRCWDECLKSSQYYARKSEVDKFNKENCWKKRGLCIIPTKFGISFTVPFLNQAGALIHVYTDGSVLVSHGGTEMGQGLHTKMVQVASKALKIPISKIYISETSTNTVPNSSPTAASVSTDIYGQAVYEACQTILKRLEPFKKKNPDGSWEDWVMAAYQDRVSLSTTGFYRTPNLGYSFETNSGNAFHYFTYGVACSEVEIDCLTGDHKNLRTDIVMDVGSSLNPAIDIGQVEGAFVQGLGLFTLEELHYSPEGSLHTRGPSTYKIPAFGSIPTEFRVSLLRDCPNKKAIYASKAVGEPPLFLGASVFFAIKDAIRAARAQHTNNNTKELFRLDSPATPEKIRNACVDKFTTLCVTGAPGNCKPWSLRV

Row | Structure (SMILES) | IC50 [µM]
1 | C=C1CC[C@]2(C(=O)O[C@@H]3O[C@H](CO[C@@H]4O[C@H](CO)[C@@H](O)[C@H](O)[C@H]4O)[C@@H](O)[C@H](O)[C@H]3O)CC[C@]3(C)C(=CC[C@@H]4[C@@]5(C)CC[C@H](O[C@@H]6OC[C@H](O)[C@H](O)[C@H]6O)[C@@](C)(CO)[C@@H]5CC[C@]43C)[C@@H]2C1 | 79.6
2 | C[C@@H]1O[C@@H](O[C@@H]2[C@@H](O[C@H]3CC[C@]4(C)[C@H]5CC=C6[C@@H]7C[C@H](CO)CC[C@]7(C(=O)O[C@H]7O[C@@H](CO[C@@H]8O[C@H](CO)[C@@H](O[C@@H]9O[C@@H](C)[C@H](O)[C@@H](O)[C@H]9O)[C@H](O)[C@H]8O)[C@H](O)[C@@H](O)[C@@H]7O)CC[C@@]6(C)[C@]5(C)CC[C@H]4C3(C)C)OC[C@@H](O)[C@H]2O)[C@H](O)[C@H](O)[C@H]1O | > 100
3 | C=C1CC[C@]2(C(=O)O[C@H]3O[C@@H](CO[C@@H]4O[C@H](CO)[C@@H](O[C@@H]5O[C@@H](C)[C@H](O)[C@@H](O)[C@H]5O)[C@H](O)[C@H]4O)[C@H](O)[C@@H](O)[C@@H]3O)CC[C@]3(C)C(=CC[C@@H]4[C@@]5(C)CC[C@H](O[C@H]6OC[C@@H](O)[C@@H](O[C@H]7OC[C@@H](O)[C@@H](O)[C@@H]7O[C@@H]7OC[C@@H](O)[C@H](O[C@H]8OC[C@@H](O)[C@@H](O)[C@@H]8O)[C@H]7O)[C@@H]6O)C(C)(C)[C@@H]5CC[C@]43C)[C@@H]2C1 | > 100
4 | C[C@H]1O[C@@H](O[C@H]2[C@H](OC[C@]3(C)[C@@H]4CC[C@]5(C)[C@H](CC=C6[C@@H]7C[C@](C)(O)[C@@H](O)C[C@]7(C(=O)O)CC[C@]65C)[C@@]4(C)CC[C@@H]3O)O[C@H](CO)[C@@H](O)[C@@H]2O)[C@H](O)[C@@H](O)[C@@H]1O | 0.2

Further lines, results first:

Row | IC50 [µM] | Structure (SMILES)
5 | > 100 | C=C1CC[C@]2(C(=O)O[C@H]3O[C@@H](CO[C@H]4O[C@@H](CO)[C@H](O)[C@@H](O)[C@@H]4O)[C@H](O)[C@@H](O)[C@@H]3O)CC[C@]3(C)C(=CC[C@@H]4[C@@]5(C)CC[C@H](O[C@H]6OC[C@@H](O)[C@@H](O)[C@@H]6O[C@@H]6O[C@@H](C)[C@H](O)[C@@H](O[C@H]7OC[C@@H](O)[C@@H](O)[C@@H]7O)[C@H]6O)C(C)(C)[C@@H]5CC[C@]43C)[C@@H]2C1
6 | 49.2 | C[C@]12CC[C@H](O)[C@](C)(CO[C@@H]3O[C@H](CO)[C@@H](O)[C@H](O)[C@H]3O)[C@@H]1CC[C@]1(C)[C@@H]2CC=C2[C@@H]3C[C@](C)(C(=O)O)[C@@H](O)C[C@]3(C(=O)O)CC[C@]21C
7 | 18.5 | C=C1CC[C@]2(C(=O)O)CC[C@]3(C)C(=CC[C@@H]4[C@@]5(C)CC[C@H](O[C@@H]6OC[C@H](O)[C@H](O)[C@H]6O[C@@H]6O[C@@H](C)[C@H](O)[C@@H](O)[C@H]6O)C(C)(C)[C@@H]5CC[C@]43C)[C@@H]2C1
8 | > 100 | C=C1CC[C@]2(C(=O)O[C@@H]3O[C@H](CO[C@@H]4O[C@H](CO)[C@@H](O)[C@H](O)[C@H]4O)[C@@H](O)[C@H](O)[C@H]3O)CC[C@]3(C)C(=CC[C@@H]4[C@@]5(C)CC[C@H](O[C@@H]6OC[C@H](O)[C@H](O[C@@H]7OC[C@H](O)[C@H](O)[C@H]7O)[C@H]6O)C(C)(C)[C@@H]5CC[C@]43C)[C@@H]2C1
9 | > 100 | C[C@]12C[C@@H](O)[C@H](O)[C@](C)(CO)[C@@H]1CC[C@]1(C)[C@@H]2CC=C2[C@@H]3C[C@](C)(C(=O)O)[C@@H](O)C[C@]3(C(=O)O)CC[C@]21C
10 | > 100 | C=C1CC[C@@]2(C(=O)O[C@@H]3O[C@H](CO[C@@H]4O[C@H](CO)[C@@H](O)[C@H](O)[C@H]4O)[C@@H](O)[C@H](O)[C@H]3O)CC[C@@]3(C)C(=CC[C@H]4[C@]5(C)CC[C@@H](O[C@@H]6OC[C@H](O)[C@H](O)[C@H]6O[C@@H]6OC[C@H](O)[C@H](O[C@H]7OC[C@@H](O)[C@@H](O)[C@@H]7O)[C@H]6O)C(C)(C)[C@H]5CC[C@@]43C)[C@H]2C1
11 | 91.3 | C=C1CC[C@]2(C(=O)O[C@@H]3O[C@H](CO[C@@H]4O[C@H](CO)[C@@H](O[C@@H]5O[C@@H](C)[C@H](O)[C@@H](O)[C@H]5O)[C@H](O)[C@H]4O)[C@@H](O)[C@H](O)[C@H]3O)CC[C@]3(C)C(=CC[C@@H]4[C@@]5(C)CC[C@H](O[C@@H]6OC[C@H](O)[C@H](O[C@@H]7O[C@H](C(=O)O)[C@@H](O)[C@H](O)[C@H]7O)[C@H]6O)[C@@](C)(CO)[C@@H]5CC[C@]43C)[C@@H]2C1
